Key:
EPO = experiment: Mouse serum EPO assay (mouse ischemic hindlimb study); assay type: in vivo; details: versus vehicle; after oral dosing; FIG. 2
Experimental: (§1) Mouse Ischemic Hindlimb Study
(§2) All animal work is conducted in accordance with the Guide for the Care and Use of Laboratory Animals (National Academy of Sciences; Copyright© 1996) and the Institutional Animal Care and Use Committee guidelines at Procter and Gamble Pharmaceuticals. We studied 9-10 week old male C57Bl/6 mice from Charles River Laboratory (Portage, Mich.). The mice are orally dosed with vehicle (aqueous carbonate buffer, 50 mM; pH 9.0) or compound 1 in vehicle at 50 mg/kg or 100 mg/kg. The animals are dosed three times: day 1 at 8 am and 5 pm, day 2 at 8 am. One hour after the first dose, unilateral arterial ligation is performed under anesthesia using isoflurane. The femoral artery is ligated proximal to the origin of the popliteal artery. The contralateral limb underwent a sham surgical procedure. Ligation is performed in an alternating fashion between right and left hindlimbs. Two hours after 8 am dosing on day 2, we obtained blood by ventricular stick while the mice are anesthetized with isoflurane. Serum samples for EPO analysis are obtained using gel clot serum separation tubes. Heart, liver, and gastrocnemius muscles are harvested, snap-frozen in liquid nitrogen, and stored in −80° C. until use.
The mouse serum EPO is detected using Mouse Quantikine Erythropoietin ELISA kit from R&D Systems according to manufacturer's instructions.

HIF-1α = experiment: Mouse tissue HIF Western blot analysis; assay type: in vivo; details: mouse liver; FIG. 1
Experimental: as §1, §2
Mouse Tissue HIF Western Blot Analysis
Tissues from mice stored at −80° C. are powdered with mortar and pestle chilled with liquid nitrogen. […]

`O=C(O)CNC(=O)c1ncc(-c2cccc(Cl)c2)cc1O` [{[5-(3-Chlorophenyl)-3-hydroxypyridine-2-carbonyl]amino}-acetic acid] was tested, and the “erythropoietin level in mouse serum” value (EPO) was “elevated versus vehicle” and the “stabilization of HIF-1α, immunoblot analysis of nuclear extracts” value (HIF-1α) was “stabilization of HIF-1α in mouse liver”.

From patent USRE47437E1, “Prolyl hydroxylase inhibitors and methods of use” (Akebia Therapeutics, Inc., priority 2015, dated 2019)
